Read-outs that look alike come from different tables or passages of the source.
Experiments:
SRS-A = assay: Anti-SRS-A action, Magnus method using the isolated guinea pig ileum; conditions: crude SRS-A after 3 minutes; for IC50: read-out: 50% inhibition concentration
Description: The anti-SRS-A activity of the compounds of the present invention was measured by Magnus method using the isolated guinea pig ileum. An extracted ileum of guinea pig was hung within a Magnus vessel which was maintained at 31±1° C. and then pre-treated with mepiramine to remove any effect by histamine. Test compound was administered in a dose of 3×10^-5 to 10^-3 M, and after 3 minutes, a previously prepared crude SRS-A was acted thereto, and then, the shrink rate (%) of the ileum was measured.

[1] = test system: passive cutaneous anaphylaxis (PCA); assay: PCA response in rats; format: in vivo, Wistar male rats; conditions: Rattus norvegicus, read-out: 50% inhibiting dose (ED50) in the rat PCA
Description: [1] PCA response in rats:
Wistar male rats weighing 190-220 g were used. A diluted anti-dinitrophenyl-Ascalis (DNP-As) rat serum (each 0.1 ml) was intracutaneously injected into the back of the animals, by which the animals were passively sensitized. After 48 hours, Evans blue liquid (1.0 ml) containing DNP-As (20 mg, as a protein) was intravenously injected to the animals to induce PCA.
After 30 minutes, rats were killed, and the skin at the response region was peeled off, and the amount of color was measured spectrophotometrically. Test compounds were administered 30 minutes (in case of intraperitoneal injection) or one hour (in case of oral administration) before the challenge with the antigen.
The data of the references: disodium chromoglycate (SDCG) and Tranilast are also shown therein.

[2] = Toxicity test in mice (LD50, Litchfield-Wilcoxon method); conditions: mouse, in vivo, ip; mortality during 7 days; ddY male mice; read-out: 50% lethal dose (LD50)
Description: The test compound was suspended in 0.5% carboxymethylcellulose solution, and the suspension was intraperitoneally administered to ddY male mice (weighing 20-25 g, one group: 10 mice). Based on the total mortality during 7 days after the administration of the test compound, the 50% lethal dose (LD50) was calculated by Litchfield-Wilcoxon method. The data of reference (Tranilast) are also shown therein.

[3] = as above; conditions: mouse, in vivo, po; mortality during 7 days; ddY male mice; read-out: 50% lethal dose (LD50)
[4] = ip, 30 minutes before the challenge with the antigen
[5] = po, 1 h, p.o., one hour before the challenge with the antigen

| SMILES | IC50 (SRS-A) [µM] | Inhibition rate (SRS-A; test compd. 10^-3 M) [%] | ED50 [1, 4] [mg/kg] | ED50 [1, 5] [mg/kg] | LD50 at 168 h [2] [mg/kg] | LD50 at 168 h [3] [mg/kg] | Inhibition rate (SRS-A; test compd. 3 × 10^-4 M) [%] | Inhibition rate (SRS-A; test compd. 10^-4 M) [%] | Inhibition rate (SRS-A; test compd. 3 × 10^-5 M) [%] |
| --- | --- | --- | --- | --- | --- | --- | --- | --- | --- |
| O=C(O)c1cc(=O)c2c(OCC(O)COc3cccc4oc(C(=O)O)cc(=O)c34)cccc2o1 [DSCG, disodium chromoglycate, reference compound] | > 1000 | 6 | 3.3 | > 200 |  |  |  |  |  |
| CCOc1ccccc1Nc1ncc(C(=O)O)c(=O)[nH]1 [Example 48, 1,6-dihydro-2-(2-ethoxyanilino)-6-oxo-5-pyrimidinecarboxylic acid] |  |  | 20.2 | 98 | > 500 | > 3000 |  |  |  |
| CCCOc1ccccc1Nc1ncc(C(=O)O)c(=O)[nH]1 [Example 49, 1,6-dihydro-2-(2-propoxyanilino)-6-oxo-5-pyrimidinecarboxylic acid] | 487 | 97.3 | 11 | 22.2 | 1160 | > 3000 | 17.9 | 8.1 |  |
| CC(C)Oc1ccccc1Nc1ncc(C(=O)O)c(=O)[nH]1 [Example 50, 1,6-dihydro-2-[b 2-(1-methylethoxy)anilino]-6-oxo-5-pyrimidinecarboxylic acid] |  |  | 13 | 75 |  |  |  |  |  |
| CCCCOc1ccccc1Nc1ncc(C(=O)O)c(=O)[nH]1 [Example 51, 1,6-dihydro-2-(2-butoxyanilino)-6-oxo-5-pyrimidinecarboxylic acid] |  |  | 10.7 | 92 | 1230 | > 3000 |  |  |  |
| CC(C)COc1ccccc1Nc1ncc(C(=O)O)c(=O)[nH]1 [Example 52, 1,6-dihydro-2-[2-(2-methylpropoxy)anilino]-6-oxo-5-pyrimidinecarboxylic acid] | 154 |  | 4.7 | 39 | 780 | > 3000 | 87.9 | 26.2 | 12.2 |
| COc1ccc(/C=C/C(=O)Nc2ccccc2C(=O)O)cc1OC [Tranilast, reference compound] | > 1000 | 48.2 | 40 | 110 | 430 | 780 | 32.4 | 23.5 |  |
